From US11857513B2, “Selective inhibitor of exon 20 insertion mutant EGFR” (Taiho Pharmaceutical Co., Ltd., priority 2016, dated 2024)
Read-outs that look alike come from different tables or passages of the source. Each block holds one compound with its values, some of them ahead of it.

Tests used:
[1] = system: H1975-EGFRinsSVD-Luc cells; assay: Life-extending effect, nude mice transplanted with H1975-EGFRinsSVD-Luc cells in the lung; details: H1975 EGFR insSVD in lung, 20 mg/kg orally once daily
Protocol: H1975-EGFRinsSVD-Luc strain was established by introducing a luciferase into H1975-EGFRinsSVD, which is a human mutant EGFR-introduced cell line. A pJTI (trademark) Fast DEST vector, which was prepared by encoding a Luciferase into NCI-H1975-EGFRinsSVD cells, was introduced into […], together with a pJTI (trademark) PhiC31 integrase expression vector, by electroporation using an Amaxa (trademark) Cell Line Nucleofector (trademark) Kit R, followed by selection using hygromycin B (Nacalai Tesque Inc.).
In evaluation of the life-extending effect, an equivalent amount of Matrigel was added to a suspension of cultured H1975-EGFRinsSVD-Luc cells to prepare a cell suspension, and the cell suspension was transplanted into the right lung of nude mice. On day 6 after transplantation, all of the living mice were administered a luciferin through the tail vein, and allocated into groups, 9 mice for each group, by stratified randomization such that the average luminescence intensity between the groups was uniform. […] The maximum tolerated dose was determined in accordance with the “Guidelines Involving Experimental Neoplasia Proposals in Mice and Rats” of the National Cancer Institute (NCI), from a humanitarian perspective.
To evaluate the life-extending effect, the survival period after transplantation was observed, and the survival time of each mouse was determined. From the survival time, the median survival time (which hereinafter also referred to as “MST”) of each group was calculated, and the survival period-extending effect (i.e., an increase in lifespan, which hereinafter also referred to as “I.L.S. (%)”) was calculated based on MST of the control group and the group administered with a test compound, using the following formula. For a toxicity index, the body weight was measured over time, and the body weight change (which hereinafter also referred to as “BWC (%)”) from the day on which the mice were divided into groups was calculated in accordance with the following formula.
T: MST of the group administered with a test compound
C: MST of the control group
(§1) BWC (%)=(the body weight measured on body weight measurement day)/(the body weight on the day mice were divided into groups)

NIH3T3-EGFRinsNPH cells = assay: Antitumor effect, nude mice subcutaneously transplanted with NIH3T3-EGFRinsNPH cells; details: NIH3T3 EGFRinsNPH, 20 mg/kg orally once daily, 10 days
Protocol: (§2) Nude mice were subcutaneously transplanted with NIH3T3-EGFRinsNPH cells into which human mutant EGFR was introduced. At the point at which the tumor volume of the tumor engrafted in the nude mice grew to about 100 to 200 mm^3, the mice were allocated into groups, 6 mice for each group, by stratified randomization such that the average tumor volume between the groups was uniform.
(§3) The maximum tolerated dose was determined in accordance with the “Guidelines Involving Experimental Neoplasia Proposals in Mice and Rats” of the National Cancer Institute (NCI), from a humanitarian perspective.
To compare the changes in growth of tumor over time due to administration of the individual test compounds, the tumor volume (which hereinafter also referred to as “TV”) of each mouse was calculated using the following formula. For a toxicity index, the body weight was measured over time, and the body weight change (which hereinafter also referred to as “BWC (%)”) from the day on which the mice were divided into groups was calculated in accordance with the following formula. FIGS. 9 and 10 illustrate changes in the average TV and the average BWC of the mice.
TV (mm^3)=(the major axis x the short axis^2)/2
as §1
The T/C (%) on the final evaluation day was calculated in accordance with the following formula.
T/C (%)=(the tumor volume of the group administered with a test compound)/(the tumor volume of the control group)

NIH3T3-EGFRinsSVD cells = assay: Antitumor effect, nude mice subcutaneously transplanted with NIH3T3-EGFRinsSVD cells; format: in vivo, mouse; details: 20 mg/kg orally once daily, 14 days
Protocol: as §2, with “with NIH3T3-EGFRinsASV cells, NIH3T3-EGFRinsSVD cells, or H1975-EGFRinsSVD” for “with NIH3T3-EGFRinsNPH”, “cells to” for “cells into”, “groups, 5 to” for “groups,”
as §3
(§4) To compare the changes in growth of tumor over time due to administration of the individual test compounds, a relative tumor volume (which hereinafter also referred to as “RTV”) was calculated based on the tumor volume at the time the mice were divided into groups (which is taken as 1 for the tumor growth ratio), using the following formula. For a toxicity index, the body weight was measured over time, and the average body weight change (which hereinafter also referred to as “BWC (%)”) from the day on which the mice were divided into groups was calculated in accordance with the following formula.
(§5) RTV=(the tumor volume on the day a tumor volume was measured)/(the tumor volume on the day mice were divided into groups) […]

NIH3T3-EGFRinsASV cells = assay: Antitumor effect, nude mice subcutaneously transplanted with NIH3T3-EGFRinsASV cells; format: in vivo, mouse; details: 20 mg/kg orally once daily, 14 days
Protocol: as §2, with “with NIH3T3-EGFRinsASV cells, NIH3T3-EGFRinsSVD cells, or H1975-EGFRinsSVD” for “with NIH3T3-EGFRinsNPH”, “cells to” for “cells into”, “groups, 5 to” for “groups,”
as §3, §4, §5

H1975-EGFRinsSVD cells [2] = assay: Antitumor effect, nude mice subcutaneously transplanted with H1975-EGFRinsSVD cells; format: in vivo, mouse; details: 20 mg/kg orally once daily, 14 days
Protocol: as §2, with “with NIH3T3-EGFRinsASV cells, NIH3T3-EGFRinsSVD cells, or H1975-EGFRinsSVD” for “with NIH3T3-EGFRinsNPH”, “cells to” for “cells into”, “groups, 5 to” for “groups,”
as §3, §4, §5

[3] = Time of maximum blood concentration after oral administration in nude mice; format: in vivo, mouse; details: single oral administration, around
H1975-EGFRinsSVD cells [4] = assay: Cell growth inhibitory effect on mutant EGFR-expressing human cell line (CellTiter-Glo); format: cell-based; details: Homo sapiens, NCI-H1975, 72 h, read-out: GI50 H1975 EGFRinsSVD
Protocol: (§6) To evaluate the inhibitory activity of compounds against wild-type EGFR and mutant EGFR, the following cells were used: NCI-H1975 cells, which are human pulmonary adenocarcinoma cell lines expressing EGFR with mutation D770_N771insSVD by gene modification (which hereinafter also referred to as “H1975-EGFRinsSVD”); and A431 cells, which are human epithelial cancer cell lines expressing wild-type EGFR. H1975-EGFRinsSVD cells were prepared as follows. […] XTN (trademark) TALENs Site-Specific Nucleases (Transposagen) were introduced into the cells by electroporation using the Amaxa (trademark) Cell Line Nucleofector (trademark) Kit R, and endogenous-EGFR (T790M/L858R)-knockout cells were selected by sequencing.
(§7) To evaluate the cell growth inhibitory effect, individual types of cells were suspended in a medium recommended by ATCC. The cell suspensions were seeded in each well of respective 96-well flat-bottom plates such that the cell count per well was 3,000, and incubated in a 5% CO2-containing incubator at 37° C. for 1 day. […] The cell count at the time incubation started (day 0) and the cell count after incubation (day 3) were measured using a CellTiter-Glo (trademark) Luminescent Cell Viability Assay (Promega Corporation) in accordance with the manufacturer's recommended protocol.
(§8) 1) If T on day 3≥C on day 0: Growth Rate (%)=(T on day 3−C on day 0)/(C on day 3−C on day 0)×100 T: the luminescence intensity of a well to which a test compound was added. C: the luminescence intensity of a well to which the test compound was not added. Day 0: the day on which a test compound was added. Day 3: the day on which evaluation was performed. 2) If T on day 3<C on day 0: Growth Rate (%)=(T on day 3−C on day 0)/(C on day 0)×100 T: the luminescence intensity of a well to which a test compound was added. C: the luminescence intensity of a well to which the test compound was not added. Day 0: the day on which a test compound was added. Day 3: the day on which evaluation was performed.
Additionally, the ratio of GI50between wild-type EGFR and EGFR exon 20 insertion mutation was determined using the following formula.
GI50 (A431): GI50 for wild-type EGFR
GI50 (H1975 EGFRinsSVD): GI50 for EGFR exon 20 insertion mutation

A431 cells = assay: Cell growth inhibitory effect on wild-type EGFR-expressing human cell line (CellTiter-Glo); format: cell-based; details: A-431, 72 h, read-out: GI50 A431
Protocol: as §6, §7, §8

Structure (SMILES): CN(C)C/C=C/C(=O)Nc1cc2c(Nc3ccc(F)c(Cl)c3)ncnc2cc1O[C@H]1CCOC1 [Afatinib, afatinib, reference compound]
- I.L.S. (%) (increase in lifespan) [1]: 23%
- MST (median survival time) [1]: 54
- T/C (%) on the final evaluation day (NIH3T3-EGFRinsNPH cells): 59%
- T/C (%) on the final evaluation day (NIH3T3-EGFRinsSVD cells): 39%
- T/C (%) on the final evaluation day (NIH3T3-EGFRinsASV cells): 46%
- T/C (%) on the final evaluation day (H1975-EGFRinsSVD cells [2]): 79%
- time at which the maximum blood concentration is achieved [3]: three hours

- GI50 (H1975-EGFRinsSVD cells [4]; H1975-EGFRinsSVD, D770_N771insSVD, 3 days): 364 nM
- GI50 (A431 cells; A431, wild-type EGFR, 3 days): 543 nM
Structure (SMILES): C=CC(=O)N[C@H]1CCc2c(-c3cnc4ccccc4c3)c3c(N)ncnc3n2C1 [Comparative Compound, (S)—N-(4-amino-5-(quinolin-3-yl)-6,7,8,9-tetrahydropyrimido[5,4-b]indolizin-8-yl)acrylamide, reference compound]

Structure (SMILES): C=CC(=O)Nc1cc(Nc2nccc(-c3cn(C)c4ccccc34)n2)c(OC)cc1N(C)CCN(C)C [Osimertinib, osimertinib, reference compound]
- GI50 (H1975-EGFRinsSVD cells [4]): 194 nM
